# Data reported in patent US7994116B2, “Methods for reduction of adhesion formation using cytokine inhibitors” (Pharmasurgics In Sweden AB, priority 2002, dated 2011).
# Tests used:
# TNF = details: following single administration in the dosage used (4 mg/kg); cited from earlier work
# [1] = tested on: rats with a standardized laminectomy; experiment: laminectomy model on the rat, infliximab treatment: wound healing and scar formation; assay type: in vivo; details: laminectomy of 4th lumbar vertebra, 4 mg/kg intraperitoneal
# Method: Four rats were anaesthetized with a standardized combination of pentobarbital and diazepam. The skin on the back was shaved. Through a midline incision, a laminectomy of the 4th lumbar vertebra was performed. The spinal muscles and the skin was sutured. Two rats received an intraperitoneal injection of 4 mg/kg of infliximab. Infliximab is a monoclonal antibody towards TNF with an inhibiting action with a duration of 1-2 months following single administration in the dosage used. The other two rats received an intraperitoneal injection of saline. After 2 weeks, the rats were reanaesthesized and wound healing and scar formation were evaluated by a person being unaware of the experimental protocol. Wound healing was considered normal in both groups. […] In the non-treated group, there was a somewhat more dense lump of connective tissue that was adherent to the spinal dura mater.
substance,measurement,setting,value
infliximab,duration of inhibiting action towards TNF,TNF,1-2 months
same,adhesion of connective tissue to the spinal dura mater,"[1]; after 2 weeks, saline group: adherent to the dura mater",did not adhere to the spinal dura mater and was easy to remove
same,scar formation: tissue filling the previous location of the lamina,"[1]; after 2 weeks, saline group: somewhat more dense lump of connective tissue",soft connective tissue
same,wound healing,"[1]; evaluated after 2 weeks, blinded",normal
